Common to all, as to assay type: physicochemical
Data set [1] in a line: Particle size of the powders (AEROSIZER, SYMPATEC). Particulars: powder; for MMAD: AEROSIZER
From the text:
Particle sizes may be measured for instance using (a) an AEROSIZER™ time-of-flight instrument (which gives an aerodynamic equivalent particle diameter, MMAD) or (b) a laser diffraction sensor such as the HELOS™ system available from SYMPATEC™ GmbH, Germany (which provides a geometric projection equivalent MMD). MMADs may also be assessed using a cascade impactor. Volume mean diameters may be obtained in both cases using commercially available software packages.

The nature of data set [2]: Flocculation volume of particulate drug suspended in propellant (HFA 134a or HFA 227ea). From the text: Flocculation volume, sometimes referred to as “sedimentation volume”, can be measured by a conventional and relatively simple method. The substance under test, in particulate form, is suspended in the desired fluid vehicle at a suitable concentration. The mixture should be well agitated (typically, simply by shaking) to ensure a uniform dispersion of particles in the fluid at the start of measurement. Immediately after agitation ceases, timing begins. The mixture is left to stand, usually under ambient conditions, and the degree of settling or creaming of the solid observed over time. The flocculation volume of the mixture at a given point in time is the volume of fluid which is still occupied by the particulate dispersion, expressed as a percentage of the total fluid volume. A higher flocculation volume thus indicates less settling/creaming, which indicates improved performance. All references herein to flocculation volumes, unless otherwise stated, are to measurements made at 22° C. […] Measurements were taken at 22° C.

The nature of data set [3]: Particle size of the powders (AEROSIZER, SYMPATEC).
Where [4] appears, read: HFA 134a, 1% w/v, 22° C., after 10 minutes.
[5] abbreviates: HFA 134a, averaged over the first minute.
Setting [6] is: HFA 227ea, 1% w/v, 22° C., after 5 minutes.
The mark [7] stands for this setting: HFA 227ea, averaged over the first minute.
[8] abbreviates: HFA 134a, averaged over the first 2 minutes.
The mark [9] stands for this setting: HFA 227ea, 1% w/v, 22° C., after 10 minutes.
Where [10] appears, read: HFA 227ea, averaged over the first 2 minutes.
Where [11] appears, read: HFA 227ea, 1% w/v, 22° C., after 1 minute.

Structures can show the parent of a compound that is named as a salt.

As to `OCc1cc(C(O)CNCCCCCCOCCCCc2ccccc2)ccc1O` (single isomer, unassigned) [salmeterol xinafoate sample C, salmeterol xinafoate], the MMAD in data set [1] came to 1.1 μm. Moreover, the flocculation volume result in data set [2] (HFA 134a, 1% w/v, 22° C., after 3 minutes) is on record as “below 40%”; in data set [2] (setting [4]), 30%; in data set [2] (setting [6]), “below 35%”. The results for the “rate of change in flocculation volume (flocculation rate)” value (shortened to “rate of change in flocculation volume”) in data set [2] (setting [5]) and in data set [2] (setting [7]) were −38 % per minute and −53 % per minute, respectively.

For the molecule “Salbutamol sulphate [salbutamol sulphate SEDS® product]”, in data set [1] (SYMPATEC), the MMD is given as 3.95 μm. The flocculation volume entry in data set [2] (setting [4]) is listed as “greater than 70%”; in data set [2] (HFA 227ea, 1% w/v, 22° C., after 8 minutes), “greater than 70%”; in data set [2] (setting [9]), “greater than 60%”. In addition, the “rate of change in flocculation volume” value in data set [2] (setting [8]) is given as −10 % per minute; in data set [2] (setting [10]), −5 % per minute.

`CCCCCCCCCCCCCCCC(=O)OC1CCCn2c1nc(C)c(CCN1CCC(c3noc4cc(F)ccc34)CC1)c2=O` (single isomer, unassigned) [risperidone-(9-hydroxy)-palmitate sample A] displayed an MMD in data set [1] (SYMPATEC) of 2.95 μm. In addition, the flocculation volume in data set [2] (setting [4]) is reported as 100%. The “rate of change in flocculation volume” value in data set [2] (setting [8]) is on record as 0 % per minute; in data set [2] (setting [10]), −2.5 % per minute.

Regarding `CN1C[C@H](C(=O)N[C@]2(C)O[C@@]3(O)[C@@H]4CCCN4C(=O)[C@H](Cc4ccccc4)N3C2=O)C[C@@H]2c3cccc4[nH]cc(c34)C[C@H]21` [DHE micronized sample, dihydroergotamine mesylate], the MMD in data set [1] (instrument not stated) came out at 15.1 μm. Also, the flocculation volume entry in data set [2] (setting [11]) was “less than 20%”; in data set [2] (setting [6]), “less than 10%”. The “rate of change in flocculation volume” value in data set [2] (setting [7]) was −90 % per minute.

`CCCCCCCCCCCCCCCC(=O)OC1CCCn2c1nc(C)c(CCN1CCC(c3noc4cc(F)ccc34)CC1)c2=O` (single isomer, unassigned) [risperidone-(9-hydroxy)-palmitate sample C] came in with an MMD in data set [1] (SYMPATEC) of 3.5 μm. The flocculation volume result in data set [2] (setting [4]) is “greater than 80%”. Besides, the “rate of change in flocculation volume” value in data set [2] (setting [8]) is reported as −1 % per minute; in data set [2] (setting [10]), −3 % per minute.

In data set [1], `CN1C[C@H](C(=O)N[C@]2(C)O[C@@]3(O)[C@@H]4CCCN4C(=O)[C@H](Cc4ccccc4)N3C2=O)C[C@@H]2c3cccc4[nH]cc(c34)C[C@H]21` [DHE SEDS® product, dihydroergotamine mesylate] registered an MMAD of 1.25 μm. The molecule also displayed a flocculation volume in data set [2] (setting [9]) of 100%. For the same molecule, the creaming result in data set [2] (HFA 227ea, after 24 hours standing) is “no visible creaming”. Besides, the “rate of change in flocculation volume” value in data set [2] (setting [10]) is on record as 0 % per minute.

For `CCCCCCCCCCCCCCCC(=O)OC1CCCn2c1nc(C)c(CCN1CCC(c3noc4cc(F)ccc34)CC1)c2=O` (single isomer, unassigned) [risperidone-(9-hydroxy)-palmitate sample B], the MMD in data set [1] (SYMPATEC) is listed as 2.5 μm. In data set [2] (setting [4]), this molecule had a flocculation volume of 100%. Also, the “rate of change in flocculation volume” value is 0 % per minute in data set [2] (setting [8]) and −3 % per minute in data set [2] (setting [10]).

Consider `CCC(=O)O[C@]1(C(=O)SCF)[C@H](C)C[C@H]2[C@@H]3C[C@H](F)C4=CC(=O)C=C[C@]4(C)[C@@]3(F)[C@@H](O)C[C@@]21C` [fluticasone propionate sample B, fluticasone propionate], for which the MMD in data set [1] (SYMPATEC) stood at 5.6 μm. Also, the flocculation volume result in data set [2] (setting [4]) is “greater than 90%”. Moreover, the “rate of change in flocculation volume” value in data set [2] (setting [8]) is given as −1 % per minute; in data set [2] (setting [10]), −0.5 % per minute.

In data set [1] (SYMPATEC), `CCC(=O)O[C@]1(C(=O)SCF)[C@H](C)C[C@H]2[C@@H]3C[C@H](F)C4=CC(=O)C=C[C@]4(C)[C@@]3(F)[C@@H](O)C[C@@]21C` [fluticasone propionate sample A, fluticasone propionate] displayed an MMD of 2.3 μm. For the same molecule, the flocculation volume entry in data set [2] (setting [4]) is “about 50%”. Further, the “rate of change in flocculation volume” value in data set [2] (setting [8]) was −20 % per minute.

`CCCCCCCCCCCCCCCC(=O)OC1CCCn2c1nc(C)c(CCN1CCC(c3noc4cc(F)ccc34)CC1)c2=O` (centres unmarked) [risperidone-(9-hydroxy)-palmitate] showed an MMD in data set [1] (instrument not stated) of 8.1 μm. Moreover, the flocculation volume entry in data set [2] (HFA 134a, 1% w/v, 22° C., after 1 minute) is reported as “less than 20%”; in data set [2] (setting [11]), “less than 20%”. The “rate of change in flocculation volume” value in data set [2] (setting [5]) is given as −152 % per minute; in data set [2] (setting [7]) it was −117 % per minute.

`CC(C)(C)NCC(O)c1ccc(O)c(CO)c1` (centres unmarked) [salbutamol micronized sample, salbutamol] registered an MMD in data set [1] (instrument not stated) of 14.5 μm. Further, the flocculation volume entry in data set [2] (HFA 134a, 1% w/v, 22° C., after 2 minutes) was “less than 20%”; in data set [2] (HFA 227ea, 1% w/v, 22° C., after 2 minutes) it was “less than 20%”. The “rate of change in flocculation volume” value in data set [2] (setting [5]) is −84 % per minute; in data set [2] (setting [7]), −55 % per minute.

In turn, `CCC(=O)O[C@]1(C(=O)SCF)[C@H](C)C[C@H]2[C@@H]3C[C@H](F)C4=CC(=O)C=C[C@]4(C)[C@@]3(F)[C@@H](O)C[C@@]21C` [fluticasone propionate sample D, fluticasone propionate] showed an MMD in data set [1] (instrument not stated) of 2.0 μm. Moreover, the flocculation volume entry in data set [2] (setting [4]) was “below 30%”; in data set [2] (HFA 227ea, 1% w/v, 22° C., after 3 minutes), “less than 30%”. In addition, the “rate of change in flocculation volume” value in data set [2] (setting [5]) is on record as −68 % per minute; in data set [2] (setting [7]), −40 % per minute.

In turn, `CN1C[C@H](C(=O)N[C@]2(C)O[C@@]3(O)[C@@H]4CCCN4C(=O)[C@H](Cc4ccccc4)N3C2=O)C[C@@H]2c3cccc4[nH]cc(c34)C[C@H]21` [crystalline DHE (Examples 9), dihydroergotamine mesylate] gave a VMD in data set [1] (SYMPATEC) of 2.8 μm. The molecule also showed a bulk powder density in data set [3] of 0.14 g/mL.

As for `OCc1cc(C(O)CNCCCCCCOCCCCc2ccccc2)ccc1O` (single isomer, unassigned) [salmeterol xinafoate sample A, Salmeterol xinafoate], the MMAD in data set [1] came out at 5.3 μm. Also, the results for the “rate of change in flocculation volume” value in data set [2] (setting [8]) and in data set [2] (setting [10]) were −3 % per minute and −11 % per minute, respectively.

As for `CCC(=O)O[C@]1(C(=O)SCF)[C@H](C)C[C@H]2[C@@H]3C[C@H](F)C4=CC(=O)C=C[C@]4(C)[C@@]3(F)[C@@H](O)C[C@@]21C` [fluticasone propionate sample C, fluticasone propionate], the MMD in data set [1] (SYMPATEC) was determined as 2.3 μm. The “rate of change in flocculation volume” value in data set [2] (setting [10]) worked out at 0 % per minute.

Take `CC(C)C[C@H]1C(=O)N2CCC[C@H]2[C@]2(O)O[C@](NC(=O)[C@@H]3C=C4c5cccc6[nH]c(Br)c(c56)C[C@H]4N(C)C3)(C(C)C)C(=O)N12` [bromocriptine mesylate sample B, Bromocriptine mesylate]: the flocculation volume in data set [2] (setting [4]) turned out to be 53%; in data set [2] (setting [9]), 95%.

`OCc1cc(C(O)CNCCCCCCOCCCCc2ccccc2)ccc1O` (single isomer, unassigned) [salmeterol xinafoate sample B, salmeterol xinafoate] registered an MMAD in data set [1] of 1.6 μm. Also, the flocculation volume entry in data set [2] (setting [4]) is recorded as “greater than 98%”; in data set [2] (HFA 134a, after 24 hours standing) it was “greater than 98%”. Further, the “rate of change in flocculation volume” value in data set [2] (setting [8]) is given as −0.2 % per minute; in data set [2] (setting [10]), −19 % per minute.

The values are drawn from patent publication US10251881B2, “Particulate materials” (priority 2002, dated 2019).
